{
  "source": "patent US9427482B2",
  "about": "“Agents for clearing biomolecules from circulation” (KONINKLIJKE PHILIPS N.V., priority 2010, dated 2016)",
  "key": {"[1]": {"assay": "Organ residence times from mouse biodistribution data (MIRD)", "procedure": "Radiation dosimetry estimates were calculated for a male human model (standard 73 Kg adult) and for a voxelized mouse model by using the mouse biodistribution data (Example 12, Tables 7 and 8) according to the MIRD methodology. Activity concentration in these organs were converted in percent injected dose (% ID) and decay corrected to the time of injection. The % ID for blood, muscle and bone were estimated from the % ID/g of tissue and assuming 6%, 42% and 11% of the body weight. Whenever possible the time activity curves were fitted by a two-phase exponential clearance function. The fitted function was then integrated analytically to yield the organ residence times (Table 9). […] The time activity curve of the tumor was fitted by a mono-exponential uptake function defined as F(t)=a0(1−exp(−a1t)).\nFor ^177Lu-DOTA-CC49 some radioactivity was collected in the mixture of urine and feces. […] For the pretargeted ^177Lu-tetrazine a total of 97.8% ID was excreted."}, "LS174T xenografts": {"test_system": "LS174T xenografts", "assay": "Biodistribution of ^125I-CC49-TCO 18 and ^177Lu-tetrazine 15 with one or two doses of 12 (Example 9)", "assay_type": "in vivo, mice", "procedure": "LS174T tumor model. The human colon cancer cell line LS174T was obtained from the ATCC and maintained in Eagle's minimal essential medium (Sigma) supplemented with 10% heat inactivated fetal calf serum (Gibco), penicillin (100 U/mL), streptomycin (100 μg/mL) and […] Glutamax. Nude female Balb/C mice (20-25 g body weight, Charles River Laboratories) were inoculated subcutaneously with 5×10^6 cells in 100 μL sterile PBS.\nNude female mice (n=4) bearing LS174T xenografts (0.29±0.16 g) were injected ^125I-CC49-TCO 18 (t=0, 100 μg/100 μl per mouse) followed by one 160 μg/100 μl dose of galactose-MSA-tetrazine (12) 30 hours post mAb injection, or two 160 μg/100 μl 12 doses 30 and 48 hours post mAb injection. Two hours after the last clearing agent dose the mice were administered 8.52 μg of ^177Lu-labeled tetrazine 15 (10 equiv. with respect to mAb) and were sacrificed 3 hours post tetrazine injection. Blood was withdrawn by heart puncture and selected organs and tissues were harvested and blotted dry. The blood samples and tissues were weighed, added with 1 mL PBS and the radioactivity was counted in a gamma counter along with standards to determine the % ID/g. The differences between columns were analyzed using the two-tailed unpaired t-test (Graphpad Prism v. 5.01)"}, "[2]": {"conditions": "Two doses of 12, 30 and 48 h post mAb"}},
  "data": [
    {"smiles": "O=C([O-])CN1CCN(CC(=O)[O-])CCN(CC(=O)NCCOCCOCCOCCOCCOCCOCCOCCOCCOCCOCCOCCNC(=O)CCCC(=O)Nc2ccc(-c3nnc(-c4ccccn4)nn3)nc2)CCN(CC(=O)[O-])CC1.[177Lu+3]", "note": "[^177Lu-tetrazine]", "values": [
      {"measurement": "Residence time Bladder Wall", "setting": "[1]", "value": 0.009, "unit": "h"},
      {"measurement": "Residence time Blood", "setting": "[1]", "value": 0.067, "unit": "h"},
      {"measurement": "Residence time Bone", "setting": "[1]", "value": 0.239, "unit": "h"},
      {"measurement": "Residence time Brain", "setting": "[1]", "value": 0.001, "unit": "h"},
      {"measurement": "Residence time Heart Wall", "setting": "[1]", "value": 0.001, "unit": "h"},
      {"measurement": "Residence time Kidneys", "setting": "[1]", "value": 0.293, "unit": "h"},
      {"measurement": "Residence time Large Intestines", "setting": "[1]", "value": 0.23, "unit": "h"},
      {"measurement": "Residence time Liver", "setting": "[1]", "value": 0.302, "unit": "h"},
      {"measurement": "Residence time Lungs", "setting": "[1]", "value": 0.031, "unit": "h"},
      {"measurement": "Residence time Muscle", "setting": "[1]", "value": 0.19, "unit": "h"},
      {"measurement": "Residence time Ovaries", "setting": "[1]", "value": 0.0034, "unit": "h"},
      {"measurement": "Residence time Small Intestines", "setting": "[1]", "value": 0.082, "unit": "h"},
      {"measurement": "Residence time Spleen", "setting": "[1]", "value": 0.023, "unit": "h"},
      {"measurement": "Residence time Stomach", "setting": "[1]", "value": 0.032, "unit": "h"},
      {"measurement": "Residence time Tumor", "setting": "[1]", "value": 3.93, "unit": "h"},
      {"measurement": "Residence time Uterus", "setting": "[1]", "value": 0.026, "unit": "h"},
      {"measurement": "Residence time remainder of the body", "setting": "[1]", "value": 1, "unit": "h"},
      {"measurement": "Residence time Red Marrow", "setting": "[1]; τmarrow=0.08 τblood", "value": 0.0054, "unit": "h"},
      {"measurement": "^177Lu-tetrazine T/blood", "setting": "LS174T xenografts; One dose of 12, 30 h post mAb", "value": "45.9±14.2"},
      {"measurement": "^177Lu-tetrazine T/bone", "setting": "LS174T xenografts; One dose of 12, 30 h post mAb", "value": "136.1 ± 68.7"},
      {"measurement": "^177Lu-tetrazine T/brain", "setting": "LS174T xenografts; One dose of 12, 30 h post mAb", "value": "935.9 ± 297.1"},
      {"measurement": "^177Lu-tetrazine T/heart", "setting": "LS174T xenografts; One dose of 12, 30 h post mAb", "value": "64.7 ± 18.0"},
      {"measurement": "^177Lu-tetrazine T/kidney", "setting": "LS174T xenografts; One dose of 12, 30 h post mAb", "value": "7.9 ± 3.3"},
      {"measurement": "^177Lu-tetrazine T/liver", "setting": "LS174T xenografts; One dose of 12, 30 h post mAb", "value": "32.4 ± 6.3"},
      {"measurement": "^177Lu-tetrazine T/lung", "setting": "LS174T xenografts; One dose of 12, 30 h post mAb", "value": "28.1 ± 11.8"},
      {"measurement": "^177Lu-tetrazine T/muscle", "setting": "LS174T xenografts; One dose of 12, 30 h post mAb", "value": "128.5 ± 83.7"},
      {"measurement": "^177Lu-tetrazine T/spleen", "setting": "LS174T xenografts; One dose of 12, 30 h post mAb", "value": "50.5 ± 10.9"},
      {"measurement": "^177Lu-tetrazine in blood", "setting": "LS174T xenografts; One dose of 12, 30 h post mAb", "value": "0.17 ± 0.06", "unit": "% ID/g"},
      {"measurement": "^177Lu-tetrazine in bone", "setting": "LS174T xenografts; One dose of 12, 30 h post mAb", "value": "0.06 ± 0.03", "unit": "% ID/g"},
      {"measurement": "^177Lu-tetrazine in brain", "setting": "LS174T xenografts; One dose of 12, 30 h post mAb", "value": "0.01 ± 0.00", "unit": "% ID/g"},
      {"measurement": "^177Lu-tetrazine in heart", "setting": "LS174T xenografts; One dose of 12, 30 h post mAb", "value": "0.12 ± 0.03", "unit": "% ID/g"},
      {"measurement": "^177Lu-tetrazine in kidney", "setting": "LS174T xenografts; One dose of 12, 30 h post mAb", "value": "1.06 ± 0.39", "unit": "% ID/g"},
      {"measurement": "^177Lu-tetrazine in liver", "setting": "LS174T xenografts; One dose of 12, 30 h post mAb", "value": "0.23 ± 0.00", "unit": "% ID/g"},
      {"measurement": "^177Lu-tetrazine in lung", "setting": "LS174T xenografts; One dose of 12, 30 h post mAb", "value": "0.28 ± 0.05", "unit": "% ID/g"},
      {"measurement": "^177Lu-tetrazine in muscle", "setting": "LS174T xenografts; One dose of 12, 30 h post mAb", "value": "0.08 ± 0.04", "unit": "% ID/g"},
      {"measurement": "^177Lu-tetrazine in spleen", "setting": "LS174T xenografts; One dose of 12, 30 h post mAb", "value": "0.15 ± 0.03", "unit": "% ID/g"},
      {"measurement": "^177Lu-tetrazine in tumor", "setting": "LS174T xenografts; One dose of 12, 30 h post mAb", "value": "7.48 ± 1.46", "unit": "% ID/g"},
      {"measurement": "^177Lu-tetrazine T/bone", "setting": "LS174T xenografts; [2]", "value": "123.3 ± 80.3"},
      {"measurement": "^177Lu-tetrazine T/brain", "setting": "LS174T xenografts; [2]", "value": "1146.7 ± 122.9"},
      {"measurement": "^177Lu-tetrazine T/heart", "setting": "LS174T xenografts; [2]", "value": "142.4 ± 18.5"},
      {"measurement": "^177Lu-tetrazine T/kidney", "setting": "LS174T xenografts; [2]", "value": "3.4 ± 0.4"},
      {"measurement": "^177Lu-tetrazine T/liver", "setting": "LS174T xenografts; [2]", "value": "30.8 ± 2.9"},
      {"measurement": "^177Lu-tetrazine T/lung", "setting": "LS174T xenografts; [2]", "value": "26.2 ± 3.9"},
      {"measurement": "^177Lu-tetrazine T/muscle", "setting": "LS174T xenografts; [2]", "value": "140.9 ± 67.1"},
      {"measurement": "^177Lu-tetrazine T/spleen", "setting": "LS174T xenografts; [2]", "value": "63.7 ± 9.2"},
      {"measurement": "^177Lu-tetrazine in blood", "setting": "LS174T xenografts; [2]", "value": "0.03 ± 0.00", "unit": "% ID/g"},
      {"measurement": "^177Lu-tetrazine in bone", "setting": "LS174T xenografts; [2]", "value": "0.08 ± 0.08", "unit": "% ID/g"},
      {"measurement": "^177Lu-tetrazine in brain", "setting": "LS174T xenografts; [2]", "value": "0.00 ± 0.00", "unit": "% ID/g"},
      {"measurement": "^177Lu-tetrazine in heart", "setting": "LS174T xenografts; [2]", "value": "0.04 ± 0.00", "unit": "% ID/g"},
      {"measurement": "^177Lu-tetrazine in kidney", "setting": "LS174T xenografts; [2]", "value": "1.58 ± 0.14", "unit": "% ID/g"},
      {"measurement": "^177Lu-tetrazine in liver", "setting": "LS174T xenografts; [2]", "value": "0.18 ± 0.02", "unit": "% ID/g"},
      {"measurement": "^177Lu-tetrazine in lung", "setting": "LS174T xenografts; [2]", "value": "0.21 ± 0.03", "unit": "% ID/g"},
      {"measurement": "^177Lu-tetrazine in muscle", "setting": "LS174T xenografts; [2]", "value": "0.05 ± 0.03", "unit": "% ID/g"},
      {"measurement": "^177Lu-tetrazine in spleen", "setting": "LS174T xenografts; [2]", "value": "0.09 ± 0.01", "unit": "% ID/g"},
      {"measurement": "^177Lu-tetrazine in tumor", "setting": "LS174T xenografts; [2]", "value": "5.38 ± 0.48", "unit": "% ID/g"}
    ]}
  ]
}
